According to patent US12703679B2, “Sulfone compounds and pharmaceutical compositions thereof, and their therapeutic applications” (Cura Therapeutics, LLC, priority 2019, dated 2026):

Experiments:
Aß40 in CSF = assay: Reduction of Aß40 in CSF of Sprague Dawley rats after single dose intravenous and oral administration; assay type: in vivo
Method: This non-GLP study had two groups that received compound A1 by intravenous (IV) and oral (PO) administration with 3-6 male rats in each group. Rats received an IV dose of compound A1 at 1 mg/kg. Rats received a PO dose of compound A1 at 10 mg/kg. Plasma samples were collected pre-dose, 0.167 (10 min), 0.5, 1, 2, 4, 6, 8, 12, and 24 h post-dose. CSF samples were collected pre-dose, 0.5, 1, 2, 4, 8, 12, and 24 hours post-dose.

Aß40 = assay: Attenuating the amyloid β40 level in neurons differentiated from familial Alzheimer's disease patient iPSCs (ELISA); assay type: cell-based, human; conditions: 10 μM test compound, FIG. 3
Method: Induced pluripotent stem cells from a familial Alzheimer's disease patient carrying a duplication of the amyloid precursor protein gene were differentiated to neurons using standard protocols. Israel et al., Nature 2012, 482, 216-220. Neural precursor cells were plated on 24-well plates and differentiated to neurons over three weeks. There was an exponential increase in the levels of Aß secreted in these cells starting on Day 4 in culture. […]

Structure (SMILES)	reduction of Aß40 in CSF (Aß40 in CSF; single IV dose 1 mg/kg, rats, by 4 h post administration, FIG. 5)	time Aß40 levels in CSF remained lower than starting levels (Aß40 in CSF; single PO dose 10 mg/kg, male rats, FIG. 4)	decrease of Aß40 in CSF (Aß40 in CSF; single PO dose 10 mg/kg, male rats, by 2 h post administration, FIG. 4)	decrease of Aß40 relative to untreated cells (PBS) (Aß40; daily treatment, by Day 6 of treatment, iPSC-derived neurons)	reduction of Aß40 relative to untreated cells (PBS) (Aß40; within 24 h, iPSC-derived neurons (APP gene duplication))
Cc1ccc(C(F)(F)F)cc1CS(=O)(=O)c1cccc(C(=O)O)c1 [Compound A1, 3-((2-methyl-5-(trifluoromethyl)benzyl)sulfonyl)benzoic acid]	20-60%	up to 24 h	up to 50%	–	–
COc1cc(CS(=O)(=O)c2cccc(C(=O)O)c2)cc(OC)c1 [Compound A2, 3-((3,5-dimethoxybenzyl)sulfonyl)benzoic acid]	–	–	–	greater than 30%	20%
